# From patent US20260167637A1, “NLRP3 INFLAMMASOME INHIBITOR AND USE THEREOF” (TransThera Sciences (Nanjing), Inc., priority 2022, published 2026)
# Like-named read-outs stand apart in the source and are kept apart here.
# Columns and labels:
# THP-1 cell NLRP3 = target: T1, THP-1 cell NLRP3 (Homo sapiens, UniProt Q96P20); assay: Inhibitory activity against cell NLRP3 inflammasomes in THP-1 cells (LPS + nigericin, ELISA of supernatant); type: cell-based; conditions: PMA-differentiated THP-1 cells, LPS 500 ng/mL 3 h, compound 1 h, nigericin 30 min; human IL-10 (so in the source) in supernatant by ELISA
# T1 construct: endogenous in cells; host or cells: THP-1 cells, PMA-differentiated, stimulated with LPS and nigericin
# Protocol: Experimental Example 1: Assay for Inhibitory Activity of Compounds Disclosed Herein Against Cell NLRP3 Inflammasomes
# Test substances: The compounds of the present disclosure, prepared according to the methods described in the examples.
# THP-1 is an immortalized human […] cell line.
# Instrument: microplate reader (made by PE)
# Assay Method: 1. THP-1 cells were cultured in 1640 complete medium (500 mL of 1640+56 mL of FBS+560 μL of 1000×P/S+2 μL of mercaptoethanol), and cells at passages 3-20 were used.
# 2. Culture plate coating: 100 μL of polylysine solution was added to a 96-well cell culture plate. After 30 min of incubation at 37° C., the solution was discarded, and the plate was washed with PBS twice for later use.
# 3. Induction of THP-1 differentiation: THP-1 cells were resuspended in an appropriate amount of complete medium containing 10 ng/mL PMA to form a cell suspension with a density of 5×10^5 cells/mL. The suspension was added to the 96-well plate at 100 μL/well, and the plate was incubated overnight in a 37° C. carbon dioxide cell incubator for 16 h.
# 4. Stimulation of THP-1: • a. Serum-free THP-1 culture medium containing LPS was added, with the final concentration being 500 ng/mL. The plate was incubated in a 37° C. carbon dioxide cell incubator for 3 h. • b. Mother liquors of the compounds to be tested with gradient concentrations were prepared with DMSO, added to the cells, and well mixed. Dilution was finally performed in a 1:1000 ratio. The plate was incubated in a 37° C. carbon dioxide cell incubator for 1 h. • c. Nigericin was added to each well, with the final concentration being […]. The plate was incubated in a carbon dioxide cell incubator at 37° C. for 30 min. • d. The medium in the wells was transferred to a new culture plate, and after 5 min of centrifugation at 3000 rpm, the supernatant was transferred to a new 96-well plate. • e. The content of human […] in the collected cell culture supernatant samples was determined with a commercial ELISA kit by following the instructions.
# [1] = Pharmacokinetic study in mice; type: in vivo, female C57BL/6J mice; conditions: female, C57BL/6J, mouse, plasma
# Protocol: (§1) The compounds were prepared into solutions using a mixed vehicle composed of 5% dimethyl sulfoxide, 20% (30% solutol), and 75% normal saline. The compound solutions were intragastrically administered to female C57BL/6J mice at a dose of 10 mg/kg, and the blood collection time points were: 15 min, 30 min, 1 h, 2 h, 4 h, 6 h, 8 h, and 24 h.
# as §1, with “intravenously injected into” for “intragastrically administered to”, “5” for “10”, “were: 5 min,” for “were:”
# The samples to be tested were taken out from a −80° C. freezer, naturally thawed at room temperature, and then vortexed for 5 min.
# Plasma samples of 10 μL from different individuals were accurately pipetted into 1.5 mL centrifuge tubes.
# 900 μL of a 100 ng/mL internal standard working solution (a solution of tolbutamide in acetonitrile) was added, and the mixture was well mixed.
# After 5 min of vortexing, centrifugation was performed at 12,000 rpm for 5 min.
# 50 μL of the supernatant was accurately pipetted into a 96-well plate to which water was added in advance at 150 μL/well.
# After 5 min of vortexing, LC-MS/MS analysis was performed.
# The results of the test substance concentrations were output by Analyst 1.6.3 of AB Sciex.
# Parameters such as mean, standard deviation, and coefficient of variation (excluding those output directly by Analyst 1.6.3) were calculated using Microsoft Excel. PK parameters were calculated using WinNonlin Phenoix 8.2 software NCA (Tmax was a median).
# T1 sequence (Q96P20 whole entry): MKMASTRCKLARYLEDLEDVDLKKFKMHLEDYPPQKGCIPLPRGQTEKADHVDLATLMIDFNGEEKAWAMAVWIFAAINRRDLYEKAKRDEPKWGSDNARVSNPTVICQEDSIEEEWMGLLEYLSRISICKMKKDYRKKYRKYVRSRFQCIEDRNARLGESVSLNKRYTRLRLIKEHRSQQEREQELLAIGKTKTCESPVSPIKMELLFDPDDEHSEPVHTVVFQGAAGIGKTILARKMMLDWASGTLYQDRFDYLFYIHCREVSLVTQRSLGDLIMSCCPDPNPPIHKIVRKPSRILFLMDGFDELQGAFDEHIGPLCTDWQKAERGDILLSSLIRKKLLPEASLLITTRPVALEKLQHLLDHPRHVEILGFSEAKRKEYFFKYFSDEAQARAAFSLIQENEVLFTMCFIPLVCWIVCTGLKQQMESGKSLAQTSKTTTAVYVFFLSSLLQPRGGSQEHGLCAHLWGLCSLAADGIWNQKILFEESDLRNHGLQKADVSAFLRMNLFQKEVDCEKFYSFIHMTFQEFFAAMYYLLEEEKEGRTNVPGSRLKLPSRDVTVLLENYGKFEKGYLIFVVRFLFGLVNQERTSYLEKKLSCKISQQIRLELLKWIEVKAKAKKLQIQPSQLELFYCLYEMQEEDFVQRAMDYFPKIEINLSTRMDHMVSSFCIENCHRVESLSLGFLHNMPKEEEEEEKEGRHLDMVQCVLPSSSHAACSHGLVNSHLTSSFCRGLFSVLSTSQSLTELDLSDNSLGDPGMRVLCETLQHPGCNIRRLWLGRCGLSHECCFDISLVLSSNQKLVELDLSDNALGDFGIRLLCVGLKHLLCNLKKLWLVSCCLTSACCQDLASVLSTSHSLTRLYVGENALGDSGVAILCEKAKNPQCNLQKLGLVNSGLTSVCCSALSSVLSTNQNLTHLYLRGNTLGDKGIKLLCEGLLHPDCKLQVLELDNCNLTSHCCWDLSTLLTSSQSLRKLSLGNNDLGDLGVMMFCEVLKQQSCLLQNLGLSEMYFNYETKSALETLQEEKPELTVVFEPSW
IC50 (THP-1 cell NLRP3) [nM],Structure (SMILES),other results
3.3,"CC#Cc1ccc(-c2nnc(N[C@@H]3CCCN(CCCO)C3)cc2C)c(O)c1 [Compound 35, (R)-2-(6-((1-(3-hydroxypropyl)piperidin-3-yl)amino)-4-methylpyridazin-3-yl)-5-(prop-1-yn-1-yl)phenol]",–
3.6,"CC#Cc1ccc(-c2nnc(N[C@@H]3CCCN(CCO)C3)cc2C2CC2)c(O)c1 [Compound 44, (R)-2-(4-cyclopropyl-6-((1-(2-hydroxyethyl)piperidin-3-yl)amino)pyridazin-3-yl)-5-(prop-1-yn-1-yl)phenol]","AUC(0-t) ([1]; iv 5 mg/kg, read-out: AUClast iv (0-24 h)): 8960 ng·h/mL; clearance ([1]; iv 5 mg/kg, read-out: Cl—obs iv (clearance rate) (converted)): 9.18 mL/min/kg; Vd ([1]; iv 5 mg/kg, read-out: Vss iv (distribution volume)): 2.76 L/kg; half-life ([1]; iv 5 mg/kg, read-out: tz1/2 iv (terminal half-life) (converted)): 3.95 h; bioavailability ([1]; po 10 mg/kg vs iv 5 mg/kg, read-out: F% (absolute bioavailability)): 69.1%; Tmax ([1]; po 10 mg/kg, median, read-out: Tmax po (time to peak plasma concentration)): 0.5 h; AUC(0-t) ([1]; po 10 mg/kg, read-out: AUClast po (0-24 h)): 12400 ng·h/mL; Cmax ([1]; po 10 mg/kg, read-out: Cmax po (peak concentration)): 1710 ng/mL; half-life ([1]; po 10 mg/kg, read-out: tz1/2 po (terminal half-life) (converted)): 4.05 h"
0.3,"C#Cc1ccc(-c2nnc(N[C@@H]3CCCN(C4CC4)C3)cc2C)c(O)c1 [Compound 94, (R)-2-(6-((1-cyclopropylpiperidin-3-yl)amino)-4-methylpyridazin-3-yl)-5-ethynylphenol]",–
1.1,"Cc1cc(N[C@@H]2CCCN(C)C2)nnc1-c1ccc(C#CC(F)(F)F)cc1O [Compound 111, (R)-2-(4-methyl-6-((1-methylpiperidin-3-yl)amino)pyridazin-3-yl)-5-(3,3,3-trifluoroprop-1-yn-1-yl)phenol]",–
9.9,"C#Cc1ccc(-c2nnc(N[C@@H]3CCCNC3)cc2C(F)(F)F)c(O)c1 [Compound 161, (R)-5-ethynyl-2-(6-(piperidin-3-ylamino)-4-trifluoromethylpyridazin-3-yl)phenol]",–
1.1,"C#Cc1ccc(-c2nnc(N[C@@H]3CCCN(CCO)C3)cc2C(F)(F)F)c(O)c1 [Compound 163, (R)-5-ethynyl-2-(6-((1-(2-hydroxyethyl)piperidin-3-yl)amino)-4-trifluoromethylpyridazin-3-yl)phenol]",–
1.3,"C#Cc1ccc(-c2nnc(N[C@@H]3CCCN(CCOC)C3)cc2C2CC2)c(O)c1 [Compound 240, (R)-2-(4-cyclopropyl-6-((1-(2-methoxyethyl)piperidin-3-yl)amino)pyridazin-3-yl)-5-ethynylphenol]",–

# The next lines start with the compound.
Structure (SMILES),IC50 (THP-1 cell NLRP3) [nM],other results
"CC#Cc1ccc(-c2nnc(N[C@@H]3CCCN(CCO)C3)c(=O)n2C)c(O)c1 [Compound 33, (R)-3-(2-hydroxy-4-(prop-1-yn-1-yl)phenyl)-6-((1-(2-hydroxyethyl)piperidin-3-yl)amino)-4-methyl-1,2,4-triazin-5(4H)-one]",11.5,–
"CC#Cc1ccc(-c2nnc(N[C@@H]3CCCN(CC(C)(C)O)C3)cc2C)c(O)c1 [Compound 36, (R)-2-(6-((1-(2-hydroxy-2-methylpropyl)piperidin-3-yl)amino)-4-methylpyridazin-3-yl)-5-(prop-1-yn-1-yl)phenol]",12.7,–
"CC#Cc1ccc(-c2nnc(N[C@@H]3CCCN(C(C)CO)C3)cc2C)c(O)c1 (stereo partly drawn) [Compound 37, 2-(6-(((3R)-1-(1-hydroxypropan-2-yl)piperidin-3-yl)amino)-4-methylpyridazin-3-yl)-5-(prop-1-yn-1-yl)phenol]",0.8,–
"Cc1cc(N[C@@H]2CCCN(C)C2)nnc1-c1ccc(C=C(F)F)cc1O [Compound 39, (R)-5-(2,2-difluorovinyl)-2-(4-methyl-6-((1-methylpiperidin-3-yl)amino)pyridazin-3-yl) phenol]",0.3,–
"CC#Cc1ccc(-c2nnc(N[C@@H]3CCCN(C)C3)n3nccc23)c(O)c1 [Compound 40, (R)-2-(7-((1-methylpiperidin-3-yl)amino)pyrazolo[1,5-d][1,2,4]triazin-4-yl)-5-(prop-1-yn-1-yl)phenol]",12.8,–
"C#Cc1cc(C)c(-c2ccc(N[C@@H]3CCCN(C)C3)nn2)c(O)c1 [Compound 41, (R)-5-ethynyl-3-methyl-2-(6-((1-methylpiperidin-3-yl)amino)pyridazin-3-yl)phenol]",0.3,–
"[2H]C([2H])([2H])N1CCC[C@@H](Nc2nnc(-c3ccc(C#C)cc3O)c(C3CC3)n2)C1 [Compound 87, (R)-2-(5-cyclopropyl-3-((1-(methyl-d3)piperidin-3-yl)amino)-1,2,4-triazin-6-yl)-5-ethynylphenol]",0.7,–
"C#Cc1ccc(-c2nnc(N[C@@H]3CCCN(CC)C3)nc2C)c(O)c1 [Compound 91, (R)-2-(3-((1-ethylpiperidin-3-yl)amino)-5-methyl-1,2,4-triazin-6-yl)-5-ethynylphenol]",0.2,–
"C#Cc1ccc(-c2nnc(N[C@@H]3CCCN(CC)C3)nc2C2CC2)c(O)c1 [Compound 92, (R)-2-(5-cyclopropyl-3-((1-ethylpiperidin-3-yl)amino)-1,2,4-triazin-6-yl)-5-ethynylphenol]",0.5,–
"C#Cc1ccc(-c2nnc(N[C@@H]3CCCN(C4CC4)C3)cc2C2CC2)c(O)c1 [Compound 95, (R)-2-(4-cyclopropyl-6-((1-cyclopropylpiperidin-3-yl)amino)pyridazin-3-yl)-5-ethynylphenol]",0.4,–
"C#Cc1ccc(-c2nnc(N[C@@H]3CCCN(C4CC4)C3)nc2C)c(O)c1 [Compound 96, (R)-2-(3-((1-cyclopropylpiperidin-3-yl)amino)-5-methyl-1,2,4-triazin-6-yl)-5-ethynylphenol]",0.5,–
"C#Cc1ccc(-c2nnc(N[C@@H]3CCCN(C4CC4)C3)nc2C2CC2)c(O)c1 [Compound 97, (R)-2-(5-cyclopropyl-3-((1-cyclopropylpiperidin-3-yl)amino)-1,2,4-triazin-6-yl)-5-ethynylphenol]",1,–
"C#Cc1ccc(-c2nnc(N[C@@H]3CCCN(C4CC4)C3)c(=O)n2C)c(O)c1 [Compound 98, (R)-6-((1-cyclopropylpiperidin-3-yl)amino)-3-(4-ethynyl-2-hydroxyphenyl)-4-methyl-1,2,4-triazin-5(4H)-one]",5,–
"C#Cc1ccc(-c2nnc(N[C@@H]3CCCN(CC)C3)c(=O)n2C2CC2)c(O)c1 [Compound 109, (R)-4-cyclopropyl-6-((1-ethylpiperidin-3-yl)amino)-3-(4-ethynyl-2-hydroxyphenyl)-1,2,4-triazin-5(4H)-one]",16,–
"C#Cc1ccc(-c2nnc(N[C@@H]3CCCN(C)C3)c(=O)n2C(C)C)c(O)c1 [Compound 112, (R)-3-(4-Ethynyl-2-hydroxyphenyl)-4-isopropyl-6-((1-methylpiperidin-3-yl)amino)-1,2,4-triazin-5(4H)-one]",12,–
"C#Cc1ccc(-c2nnc(N[C@@H]3CCCNC3)cc2C)c(O)c1 [Compound 139, (R)-5-ethynyl-2-(4-methyl-6-(piperidin-3-ylamino)pyridazin-3-yl)phenol]",1.1,–
